Columns and labels:
[1] = population pharmacokinetic modeling of plasma isradipine in STEADY-PD III by tertile groups; conditions: IR 5 mg twice daily; for CL/F: steady state; for Cave,ss: based on AUC24
Cav1.3 = Cav1.3 (Homo sapiens, UniProt Q01668); conditions: in vitro; read-out: IC50 for inhibition of calcium currents through Cav1.3 (converted); cited from earlier work
[2] = test system: dopaminergic neurons in the striatum and substantia nigra; conditions: 6-hydroxydopamine mouse model, cited from earlier work
SNc DA neurons = conditions: chronic treatment in vivo, cited from earlier work
Parkinson's disease = experiment: STEADY-PD III post-hoc analysis: isradipine exposure versus need for antiparkinson therapy and levodopa equivalent dose; assay type: in vivo, human
[3] = Middle CL/F, Middle AUC24 tertile

Sequence of Cav1.3 (Q01668 whole entry): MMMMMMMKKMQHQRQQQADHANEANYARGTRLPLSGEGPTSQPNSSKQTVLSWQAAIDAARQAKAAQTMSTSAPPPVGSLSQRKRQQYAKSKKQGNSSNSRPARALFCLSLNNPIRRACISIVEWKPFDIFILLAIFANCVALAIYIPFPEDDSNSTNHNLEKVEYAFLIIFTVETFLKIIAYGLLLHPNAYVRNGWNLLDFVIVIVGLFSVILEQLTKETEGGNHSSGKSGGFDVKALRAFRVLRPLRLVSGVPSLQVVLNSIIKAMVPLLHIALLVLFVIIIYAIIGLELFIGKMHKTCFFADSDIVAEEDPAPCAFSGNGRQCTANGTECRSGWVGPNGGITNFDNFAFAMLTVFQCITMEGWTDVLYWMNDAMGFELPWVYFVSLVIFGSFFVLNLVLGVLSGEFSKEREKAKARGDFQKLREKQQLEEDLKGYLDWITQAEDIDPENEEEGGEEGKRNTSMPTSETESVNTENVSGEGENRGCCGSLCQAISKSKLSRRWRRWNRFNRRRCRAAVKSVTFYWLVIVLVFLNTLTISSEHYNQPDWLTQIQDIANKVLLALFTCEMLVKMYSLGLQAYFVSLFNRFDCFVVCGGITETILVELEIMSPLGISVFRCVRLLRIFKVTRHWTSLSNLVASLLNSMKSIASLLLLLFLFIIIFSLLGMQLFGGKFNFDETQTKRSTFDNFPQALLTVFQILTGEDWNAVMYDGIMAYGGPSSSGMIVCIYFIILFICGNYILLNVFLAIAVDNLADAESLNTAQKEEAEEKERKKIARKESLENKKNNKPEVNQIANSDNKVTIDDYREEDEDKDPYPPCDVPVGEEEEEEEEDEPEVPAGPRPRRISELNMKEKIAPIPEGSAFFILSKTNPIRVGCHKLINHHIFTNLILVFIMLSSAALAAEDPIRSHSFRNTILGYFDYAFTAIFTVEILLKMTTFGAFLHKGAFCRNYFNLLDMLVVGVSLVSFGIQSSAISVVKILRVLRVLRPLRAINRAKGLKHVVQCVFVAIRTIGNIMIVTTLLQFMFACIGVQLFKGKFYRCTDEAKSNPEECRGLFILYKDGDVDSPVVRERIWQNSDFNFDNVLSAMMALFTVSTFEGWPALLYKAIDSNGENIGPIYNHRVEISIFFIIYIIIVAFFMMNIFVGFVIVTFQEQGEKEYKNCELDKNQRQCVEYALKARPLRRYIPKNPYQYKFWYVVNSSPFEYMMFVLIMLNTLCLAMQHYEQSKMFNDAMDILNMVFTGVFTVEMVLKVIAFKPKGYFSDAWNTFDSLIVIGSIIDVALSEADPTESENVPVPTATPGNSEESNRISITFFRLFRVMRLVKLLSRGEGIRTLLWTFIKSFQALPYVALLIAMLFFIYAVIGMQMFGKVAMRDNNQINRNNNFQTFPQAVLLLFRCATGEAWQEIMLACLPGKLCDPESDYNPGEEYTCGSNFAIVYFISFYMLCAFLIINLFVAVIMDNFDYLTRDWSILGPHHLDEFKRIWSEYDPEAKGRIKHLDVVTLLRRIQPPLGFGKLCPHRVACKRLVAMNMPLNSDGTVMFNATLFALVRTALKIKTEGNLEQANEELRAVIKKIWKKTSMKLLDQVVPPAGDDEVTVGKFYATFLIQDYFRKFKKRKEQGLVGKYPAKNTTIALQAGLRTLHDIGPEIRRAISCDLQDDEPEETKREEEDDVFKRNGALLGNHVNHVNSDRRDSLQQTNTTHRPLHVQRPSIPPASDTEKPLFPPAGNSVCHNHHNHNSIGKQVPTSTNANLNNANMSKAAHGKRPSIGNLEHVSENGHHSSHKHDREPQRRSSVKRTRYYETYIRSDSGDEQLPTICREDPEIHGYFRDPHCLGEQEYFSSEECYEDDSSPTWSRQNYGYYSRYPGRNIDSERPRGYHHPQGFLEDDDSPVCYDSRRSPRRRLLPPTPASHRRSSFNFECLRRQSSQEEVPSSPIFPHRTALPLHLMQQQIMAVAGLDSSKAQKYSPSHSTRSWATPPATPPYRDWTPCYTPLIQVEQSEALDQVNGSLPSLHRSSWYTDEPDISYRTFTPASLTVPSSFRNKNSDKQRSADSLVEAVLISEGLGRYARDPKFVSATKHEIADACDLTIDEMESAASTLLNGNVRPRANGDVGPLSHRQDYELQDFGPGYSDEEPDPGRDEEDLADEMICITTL
Sequence of Cav1.3 (P54284 whole entry partner): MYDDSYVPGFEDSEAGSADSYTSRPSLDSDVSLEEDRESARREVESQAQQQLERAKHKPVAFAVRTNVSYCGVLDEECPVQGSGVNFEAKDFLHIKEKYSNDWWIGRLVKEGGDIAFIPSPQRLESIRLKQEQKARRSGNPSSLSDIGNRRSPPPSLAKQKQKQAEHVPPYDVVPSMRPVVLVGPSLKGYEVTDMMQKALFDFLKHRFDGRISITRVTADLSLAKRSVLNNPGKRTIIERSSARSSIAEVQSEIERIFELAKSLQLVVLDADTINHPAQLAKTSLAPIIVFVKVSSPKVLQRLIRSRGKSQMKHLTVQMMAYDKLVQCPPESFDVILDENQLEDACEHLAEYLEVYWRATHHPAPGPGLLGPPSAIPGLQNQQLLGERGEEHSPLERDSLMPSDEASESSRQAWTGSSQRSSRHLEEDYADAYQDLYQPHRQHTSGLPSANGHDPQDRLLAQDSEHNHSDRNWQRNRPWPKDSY
Sequence of Cav1.3 (P54289 25-946 partner limits assumed): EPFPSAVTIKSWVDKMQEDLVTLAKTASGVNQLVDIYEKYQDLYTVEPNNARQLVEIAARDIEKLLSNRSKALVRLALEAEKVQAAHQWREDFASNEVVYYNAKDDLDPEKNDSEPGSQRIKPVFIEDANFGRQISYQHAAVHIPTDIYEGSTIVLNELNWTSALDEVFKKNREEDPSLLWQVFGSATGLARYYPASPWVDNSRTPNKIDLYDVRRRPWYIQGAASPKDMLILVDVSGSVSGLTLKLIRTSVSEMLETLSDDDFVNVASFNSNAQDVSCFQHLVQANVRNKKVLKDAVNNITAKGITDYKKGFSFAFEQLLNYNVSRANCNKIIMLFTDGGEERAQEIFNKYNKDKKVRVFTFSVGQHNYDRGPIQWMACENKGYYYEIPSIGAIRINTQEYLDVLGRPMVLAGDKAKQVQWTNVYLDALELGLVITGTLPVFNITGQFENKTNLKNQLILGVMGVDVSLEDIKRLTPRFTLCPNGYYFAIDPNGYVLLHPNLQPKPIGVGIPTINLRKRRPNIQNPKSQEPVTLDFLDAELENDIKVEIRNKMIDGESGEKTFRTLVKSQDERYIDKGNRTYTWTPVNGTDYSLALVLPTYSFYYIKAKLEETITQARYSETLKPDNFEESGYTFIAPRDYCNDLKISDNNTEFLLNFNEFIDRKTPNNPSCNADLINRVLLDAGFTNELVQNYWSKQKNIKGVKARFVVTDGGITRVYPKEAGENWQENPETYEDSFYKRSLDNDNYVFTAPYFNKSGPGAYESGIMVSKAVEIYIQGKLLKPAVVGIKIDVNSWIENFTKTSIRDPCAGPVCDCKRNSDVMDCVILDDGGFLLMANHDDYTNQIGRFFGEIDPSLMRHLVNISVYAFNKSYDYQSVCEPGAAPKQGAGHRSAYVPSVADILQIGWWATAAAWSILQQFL
Sequence of Cav1.3 (P54289 947-1103 partner limits assumed): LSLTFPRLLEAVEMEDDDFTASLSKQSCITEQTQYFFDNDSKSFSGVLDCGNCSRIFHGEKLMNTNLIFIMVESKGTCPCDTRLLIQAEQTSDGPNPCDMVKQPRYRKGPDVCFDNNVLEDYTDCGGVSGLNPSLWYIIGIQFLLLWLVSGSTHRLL

COC(=O)C1=C(C)NC(C)=C(C(=O)OC(C)C)C1c1cccc2nonc12 (centres unmarked) [isradipine]
Cmin,ss ([1]; Fast CL/F, Low AUC24 tertile): 0.56 ng/mL
CL/F ([1]; Fast CL/F, Low AUC24 tertile): 477 L/h
Cave,ss ([1]; Fast CL/F, Low AUC24 tertile): 0.9 ng/mL
Cmin,ss [1, 3]: 0.86 ng/mL
CL/F [1, 3]: 296 L/h
Cave,ss [1, 3]: 1.4 ng/mL
Cmin,ss ([1]; Slow CL/F, High AUC24 tertile): 1.40 ng/mL
CL/F ([1]; Slow CL/F, High AUC24 tertile): 195 L/h
Cave,ss ([1]; Slow CL/F, High AUC24 tertile): 2.1 ng/mL
IC50 (Cav1.3): ~8.08 nM
plasma concentration required to inhibit neuronal death by 50% (IC50) ([2]; systemic administration, plasma concentration): 5 to 7 ng/mL
protection of dopaminergic neurons in the striatum and substantia nigra ([2]; systemic administration): concentration-dependent protection
threshold plasma concentration for protection against neuronal death ([2]; inflection point in the concentration-response curve): 1.5 to 2 ng/mL
high basal rate of mitophagy (SNc DA neurons; SNc DA neurons): diminished
mitochondrial oxidant stress (SNc DA neurons; SNc DA neurons): significantly lowered
cytosolic [Ca2+] in SNc DA neurons (SNc DA neurons): sustained reduction
mitochondrial mass in SNc DA neurons (SNc DA neurons): increased
HR for time to need therapy (Parkinson's disease; highest AUC24 exposure group vs placebo, 95% CI 0.45-0.97): 0.66
decrease in risk of needing antiparkinson treatment (Parkinson's disease; trend per CL/F tertile decrement or AUC24 tertile increment, vs placebo, p for trend=0.02): 13%
HR for time to first initiation of antiparkinson therapy (Parkinson's disease; trend per tertile, vs placebo, 95% CI:0.78-0.98): 0.87

— patent US11850243B2, “Dihydropyridine compositions and methods for treating neurological disorders” (Cavalon Therapeutics, Inc., priority 2021, dated 2023)
